From patent US20090298947A1, “POLYMORPHIC AND AMORPHOUS FORMS OF […] AMORPHOUS COMPOSITIONS” (PLIVA HRVATSKA D.O.O., priority 2008, published 2009)

Tests used:
[1] = Interconversion of form II to form I in stirred suspension, crystal form determined using XRPD; type: physicochemical
Method: Samples after being powdered in a mortar and pestle are applied directly on silicon plate holder. The X-ray powder diffraction pattern was measured with Philips X'Pert PRO X-ray powder diffractometer, equipped with Cu irradiation source=1.54060 ? ( ? ngstrom), X'C.elerator (2.022° 2Θ) detector. Scanning parameters: angle range: 3-40 deg., step size 0.0167, time per step 100 s, continuous scan. The accuracy of peak positions was defined as ±0.2 degrees due to experimental differences like instrumentations and sample preparations.
27.0 g of Lacosamide was dissolved in 300 ml of ethyl acetate. Solution crystallized by cooling at about 42° C. Suspension was cooled to 40° C. and samples were taken in time intervals, filtered and crystal form was determined using XRPD. […] Crystals were filtered, washed with ethyl acetate and dried at 50° C./vacuo yielding 20.0 g Lacosamide form I.
30.0 g of Lacosamide was dissolved in 239 ml of ethyl acetate and 1 ml of water. Solution crystallized by cooling at about 46° C. Suspension was cooled to 40° C. and samples were taken in time intervals, filtered and crystal form was determined using XRPD. […] Crystals were filtered, washed with cold ethyl acetate and dried at 50° C./vacuo yielding 22.9 g Lacosamide form I.

[2] = Temperature dependent X-ray powder diffraction, heating of form II; type: physicochemical
Method: Temperature dependent X-ray powder diffraction (TDXD) was carried out with a Bruker AXS D8 θ-θ powder diffractometer with parafocusing Bragg-Brentano geometry using CuKα radiation (λ=1.5418 Å, U=34 kV, I=20 mA). The sample was placed on a Pt/Rh ribbon in a MRI high-temperature oven-camera and VPSlits were used to fix the constant irradiated length (20 mm). Data were scanned with an ultrafast detector LynxEye over the angular range 3-38° (2θ) with a step size of 0.0196° (2θ) and a counting time of 58.6 s step^−1. The heating and cooling process was controlled by Eurotherm 2404.
The sample of form II lacosamide (50 mg) was placed on a Pt/Rh ribbon in a MRI high-temperature oven-camera, and heated at rate of 10° C./min up to 100° C. The heating and cooling process was controlled by Eurotherm 2404.

## COC[C@@H](NC(C)=O)C(=O)NCc1ccccc1 [Lacosamide, (R)-N-benzyl-2-acetamido-3-methoxypropionamide]
[1]; suspension in ethyl acetate and water (239 ml/1 ml), after 2 hours at 40° C.
  crystal form determined using XRPD: form I
[1]; suspension in ethyl acetate and water (239 ml/1 ml), sample taken immediately when temperature reached 40° C.
  crystal form determined using XRPD: mixture of form I and form II
[1]; suspension in ethyl acetate, after 2 hours at 40° C.
  crystal form determined using XRPD: mixture of form I and form II
[1]; suspension in ethyl acetate, after 4 hours at 40° C.
  crystal form determined using XRPD: form I
[1]; suspension in ethyl acetate, sample taken immediately when temperature reached 40° C.
  crystal form determined using XRPD: form II

## COC[C@@H](NC(C)=O)C(=O)NCc1ccccc1 [form II lacosamide, (R)-N-benzyl-2-acetamido-3-methoxypropionamide]
[2]; heated at 10° C./min up to 100° C.
  temperature of transformation of form II to form III: around 80 °C
[2]; sample cooled back to room temperature
  reversibility of transformation of form II to form III: completely reversible
